Columns and labels:
[1] = tested on: wheat (Tr); assay: Test Example 9: crop plant selectivity by upland field foliage treatment (wheat), phytotoxicity; details: dose 1.6 g ai/10a, 14th day after treatment;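 also: grade of crop injury; 5 = at least 90%; 4 = 70 to 90%; 3 = 50 to 70%; 2 = 30 to 50%; 1 = 10 to 30%; 0 = under 10%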
How it was run: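 Seeds of wheat, pale smartweed, slender amaranth, common lambsquarters and China jute are sown in sand and grown 2 weeks under glass. Foliage is then treated, culture resumes in the greenhouse, and damage is graded on the 14th day.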

[2] = tested on: pale smartweed (Po); assay: Test Example 7: crop plant selectivity by upland field soil treatment (corn), herbicidal effects; assay type: in vivo; design: scale not given here; details: 21st day after application
How it was run: (§1)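 Scoring of weed kill and corn injury was done on day 21 after the application, using defined standards. Before that, sown seeds in sand-filled pots were covered with soil, treated, and grown in a greenhouse.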

[3] = tested on: China jute (Ab); assay: as above; assay type: in vivo; design: scale not given here; details: 21st day after application
How it was run: as §1

[4] = tested on: green foxtail (Se); assay: as above; assay type: in vivo; design: scale not given here; details: 21st day after application
How it was run: as §1

[5] = tested on: common lambsquarters (Ch); assay: as above; assay type: in vivo; design: scale not given here; details: 21st day after application
How it was run: as §1

[6] = tested on: slender amaranth (Am); assay: as above; assay type: in vivo; design: scale not given here; details: 21st day after application
How it was run: as §1

[7] = tested on: wheat (Tr); assay: Test Example 5: crop plant selectivity by upland field soil treatment (wheat), phytotoxicity; assay type: in vivo; design: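 grade of crop injury; 5 = at least 90%; 4 = 70 to 90%; 3 = 50 to 70%; 2 = 30 to 50%; 1 = 10 to 30%; 0 = under 10%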; details: 21st day after application
How it was run: (§2)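 A greenhouse pot test in which wheat and weeds share sand-filled pots; after the soil application, damage is graded against set standards three weeks later.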

[8] = tested on: monochoria (Mo); assay: Test Example 1: herbicidal effects by paddy field soil treatment; assay type: in vivo; details: 100 g of the active ingredient per 10 ares, 21st day after the application, index 0-5 of Table 47;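 also: grade of growth control; 5 = at least 90%; 4 = 70 to 90%; 3 = 50 to 70%; 2 = 30 to 50%; 1 = 10 to 30%; 0 = under 10%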
How it was run: (§3)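 Greenhouse pot test in flooded paddy soil, dosed at 100 g a.i. per 10 ares; effect scored on day 21.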

[9] = tested on: bulrush (Sc); assay: as above; assay type: in vivo; details: 100 g of the active ingredient per 10 ares, 21st day after the application, index 0-5 of Table 47;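 also: grade of growth control; 5 = at least 90%; 4 = 70 to 90%; 3 = 50 to 70%; 2 = 30 to 50%; 1 = 10 to 30%; 0 = under 10%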
How it was run: as §3

[10] = tested on: barnyardgrass (Ec); assay: as above; assay type: in vivo; details: 100 g of the active ingredient per 10 ares, 21st day after the application, index 0-5 of Table 47;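 also: grade of growth control; 5 = at least 90%; 4 = 70 to 90%; 3 = 50 to 70%; 2 = 30 to 50%; 1 = 10 to 30%; 0 = under 10%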
How it was run: as §3

[11] = tested on: corn (Ze); assay: Test Example 7: crop plant selectivity by upland field soil treatment (corn), phytotoxicity; assay type: in vivo; design: scale not given here; details: 21st day after application
How it was run: as §1

[12] = tested on: China jute (Ab); assay: Test Example 5: crop plant selectivity by upland field soil treatment (wheat), herbicidal effects; assay type: in vivo; design: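 grade of growth control; 5 = at least 90%; 4 = 70 to 90%; 3 = 50 to 70%; 2 = 30 to 50%; 1 = 10 to 30%; 0 = under 10%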; details: 21st day after application
How it was run: as §2

Compound | Phytotoxicity Tr [1] | Herbicidal effects Po ([2]; dose 6.3 g ai/10a) | Herbicidal effects Ab ([3]; dose 6.3 g ai/10a) | Herbicidal effects Se ([4]; dose 6.3 g ai/10a) | Herbicidal effects Ch ([5]; dose 6.3 g ai/10a) | Herbicidal effects Am ([6]; dose 6.3 g ai/10a) | Phytotoxicity Tr ([7]; dose 6.3 g ai/10a) | Herbicidal effects Mo [8] | Herbicidal effects Sc [9] | Herbicidal effects Ec [10] | Phytotoxicity Ze ([11]; dose 6.3 g ai/10a) | Herbicidal effects Ab ([12]; dose 6.3 g ai/10a) | Herbicidal effects Po ([2]; dose 1.6 g ai/10a) | Herbicidal effects Ab ([3]; dose 1.6 g ai/10a) | Herbicidal effects Se ([4]; dose 1.6 g ai/10a) | Herbicidal effects Ch ([5]; dose 1.6 g ai/10a) | Herbicidal effects Am ([6]; dose 1.6 g ai/10a) | Phytotoxicity Tr ([7]; dose 1.6 g ai/10a) | Phytotoxicity Ze ([11]; dose 1.6 g ai/10a) | Herbicidal effects Ab ([12]; dose 1.6 g ai/10a)
CC(C)Sc1cc(-c2ccc(C(F)(F)F)n(C)c2=O)c(F)cc1Cl [1-43] | 2 | 5 | 4 | 5 | 5 | 5 | 1 | 5 | 5 | 5 | 1 | 4 |  |  |  |  |  |  |  | 
CCOC(=O)CON=Cc1cc(-c2ccc(C(F)(F)F)n(C)c2=O)c(F)cc1Cl [Compound 1-191] | 2 | 5 | 5 | 5 | 5 | 5 | 1 | 5 | 5 | 5 | 1 | 5 |  |  |  |  |  |  |  | 
C#CCN1C(=O)COc2cc(Cl)c(-c3ccc(C(F)(F)F)n(C)c3=O)cc21 [Compound 2-25] | 2 |  |  |  |  |  | 2 | 5 | 5 | 5 |  | 5 | 5 | 5 | 5 | 5 | 5 | 1 | 1 | 5

From patent US6472348B1, “Pyridone derivatives and herbicides” (Kumiai Chemical Industry Co., Ltd., priority 1996, dated 2002)
